Data as given in patent US9212168B2 (priority 2011, dated 2015).

test system: HCV genotype 1a replicon; assay: HCV genotype 1a replicon assay (NS3 protease activity readout); format: cell-based, hepatitis C virus; conditions: HCV genotype 1a replicon
How it was run: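 EC50 values came from a 4-parameter robust fit of fluorescence (ex 340, em 509 nm) produced by NS3-specific protease in lysates, assayed with 15 μM FRET substrate for 20 min at 37° C, after 48 or 72 hours of compound exposure (0.5% DMSO) of Huh7.5-derived APC89 genotype 1a replicon cells.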

Structure (SMILES) | Genotype 1a
COC(=O)N[C@H](C(=O)N1C[C@@H](OC)C[C@H]1c1nc(-c2ccc(-c3cc(Cl)c(NC(=O)c4ccc(N5CCN(C(=O)C(C)(C)C)C[C@H]5C)nc4)cc3C(F)(F)F)cc2)c[nH]1)C1CCOCC1 [Example 19-16] | D (D represents pEC50>10 (EC50<0.1 nM))
COC(=O)N[C@H](C(=O)N1C[C@@H](OC)C[C@H]1c1nc(-c2ccc(-c3cc(Cl)c(NC(=O)c4ccc(N5CCN(C(=O)C(C)(C)C)C[C@H]5C)nc4)cc3C(F)(F)F)cc2)c[nH]1)C1CCCCC1 [Example 19-17] | C (C represents pEC50 between and 9 and about 10, (EC50 between 1 nM and 0.1 nM))
COC(=O)NC(C(=O)N1C[C@@H](C)C[C@H]1c1nc(-c2ccc(-c3c(F)cc(NC(=O)c4ccc(N5CCN(C(=O)C(C)(C)C)C[C@H]5C)nc4)cc3F)cc2)c[nH]1)C1CCCCC1 (stereo partly shown) [Example 21-1] | A (A represents a pEC50 value between 6 and 8 (EC50 between 1 μM and 10 nM))
COC(=O)NC(C(=O)N1C[C@@H](C)C[C@H]1c1nc(-c2ccc(-c3c(F)cc(NC(=O)c4ccc(N5CCN(C(=O)C(C)(C)C)C[C@H]5C)nc4)cc3F)cc2)c[nH]1)C1CCCCC1 (stereo partly shown) [Example 21-4] | C (C represents pEC50 between and 9 and about 10, (EC50 between 1 nM and 0.1 nM))
COC(=O)N[C@H](C(=O)N1C[C@@H](C)C[C@H]1c1nc(-c2ccc(-c3ccc(C(=O)Nc4ccc(N5CCN(C(=O)[C@H]6CC6(C)C)C[C@H]5C)nc4)cc3)cc2)c[nH]1)C1CCOCC1 [Example 22-2] | D (D represents pEC50>10 (EC50<0.1 nM))
COC(=O)N[C@H](C(=O)N1C[C@@H](OC)C[C@H]1c1nc(-c2ccc(-c3ccc(C(=O)Nc4ccc(N5CCN(C(=O)C(C)(C)CO)C[C@H]5C)nc4)cc3OC(F)(F)F)cc2)c[nH]1)C1CCOCC1 [Example 22-14] | D (D represents pEC50>10 (EC50<0.1 nM))
COC(=O)N[C@H](C(=O)N1C[C@@H](OC)C[C@H]1c1nc(-c2ccc(-c3ccc(C(=O)Nc4ccc(N5CCN(C(=O)[C@H]6CC6(C)C)C[C@H]5C)nc4)cc3)cc2)c[nH]1)C1CCOCC1 [Example 22-15] | D (D represents pEC50>10 (EC50<0.1 nM))
COC(=O)N[C@H](C(=O)N1C[C@@H](OC)C[C@H]1c1nc(-c2ccc(-c3cc(Cl)c(C(=O)Nc4ccc(N5CCN(C(=O)C(C)(C)CO)C[C@H]5C)nc4)cc3OC(F)(F)F)cc2)c[nH]1)C1CCOCC1 [Example 22-17] | D (D represents pEC50>10 (EC50<0.1 nM))
COC(=O)NC(C(=O)N1C[C@@H](C)C[C@H]1c1nc(-c2ccc(-c3cc(Cl)c(C(=O)Nc4ccc(N5CCN(C(=O)C(C)(C)C)C[C@H]5C)nc4)cc3OC(F)(F)F)cc2)c[nH]1)C1C[C@@H](C)O[C@@H](C)C1 (stereo partly shown) [Example 23-1] | A (A represents a pEC50 value between 6 and 8 (EC50 between 1 μM and 10 nM))
COC(=O)NC(C(=O)N1C[C@@H](C)C[C@H]1c1nc(-c2ccc(-c3cc(Cl)c(C(=O)Nc4ccc(N5CCN(C(=O)C(C)(C)C)C[C@H]5C)nc4)cc3OC(F)(F)F)cc2)c[nH]1)C1C[C@@H](C)O[C@@H](C)C1 (stereo partly shown) [Example 23-2] | D (D represents pEC50>10 (EC50<0.1 nM))
COC(=O)N[C@H](C(=O)N1C[C@@H](C)C[C@H]1c1nc(-c2ccc(-c3ccc(C(=O)Nc4ccc(N5CCN(C(=O)C(C)(C)C)C[C@H]5C)nc4)cc3OC(F)F)cc2)c[nH]1)C1CCOCC1 [Example 25-5] | D (D represents pEC50>10 (EC50<0.1 nM))
COC[C@H]1C[C@@H](c2nc(-c3ccc(-c4ccc(C(=O)Nc5ccc(N6CCN(C(=O)C(C)(C)C)C[C@H]6C)nc5)c(Cl)c4OC(F)(F)F)cc3)c[nH]2)N(C(=O)[C@@H](NC(=O)OC)C2CCOCC2)C1 [Example 25-6] | C (C represents pEC50 between and 9 and about 10, (EC50 between 1 nM and 0.1 nM))
COC[C@H]1C[C@@H](c2nc(-c3ccc(-c4ccc(C(=O)Nc5ccc(N6CCN(C(=O)C(C)(C)C)C[C@H]6C)nc5)c(Cl)c4OC(F)(F)F)cc3)c[nH]2)N(C(=O)[C@@H](NC(=O)OC)C(C)C)C1 [Example 25-7] | B (B represents pEC50 between 8 and 9 (EC50 between 1 and 10 nM))
COC(=O)N[C@H](C(=O)N1C[C@H](O)C[C@H]1c1nc(-c2ccc(-c3ccc(NC(=O)c4ccc(N5CCN(C(=O)[C@]6(C)CCCN6C(=O)OC)C[C@H]5C)nc4)cc3)cc2)c[nH]1)C(C)C [Example 26-1] | A (A represents a pEC50 value between 6 and 8 (EC50 between 1 μM and 10 nM))
COC(=O)N[C@H](C(=O)N1C[C@@H](O)C[C@H]1c1nc(-c2ccc(-c3ccc(NC(=O)c4ccc(N5CCN(C(=O)c6c[nH]cn6)C[C@H]5C)nc4)cc3)cc2)c[nH]1)C(C)C [Example 26-2] | B (B represents pEC50 between 8 and 9 (EC50 between 1 and 10 nM))
CNC(=O)N1CCN(c2ccc(C(=O)Nc3ccc(-c4ccc(-c5c[nH]c([C@@H]6C[C@H](O)CN6C(=O)[C@@H](NC(=O)OC)C(C)C)n5)cc4)cc3)cn2)[C@H](C)C1 [Example 26-3] | B (B represents pEC50 between 8 and 9 (EC50 between 1 and 10 nM))
COC(=O)N[C@H](C(=O)N1C[C@@H](O)C[C@H]1c1nc(-c2ccc(-c3cc(F)c(NC(=O)c4ccc(N5CCN(C(=O)C(C)(C)C)C[C@H]5C)nc4)cc3OC(F)(F)F)cc2)c[nH]1)C(C)C [Example 26-6] | C (C represents pEC50 between and 9 and about 10, (EC50 between 1 nM and 0.1 nM))
COC(=O)N[C@H](C(=O)N1C[C@@H](O)C[C@H]1c1nc(-c2ccc(-c3cc(Cl)c(NC(=O)c4ccc(N5CCN(C(=O)C(C)(C)C)C[C@H]5C)nc4)cc3OC(F)(F)F)cc2)c[nH]1)C(C)C [Example 26-8] | C (C represents pEC50 between and 9 and about 10, (EC50 between 1 nM and 0.1 nM))
COC(=O)N[C@H](C(=O)N1C[C@@H](O)C[C@H]1c1nc(-c2ccc(-c3cc(Cl)c(NC(=O)c4ccc(N5CCN(C(=O)C(C)(C)CO)C[C@H]5C)nc4)cc3OC(F)(F)F)cc2)c[nH]1)C(C)C [Example 26-9] | C (C represents pEC50 between and 9 and about 10, (EC50 between 1 nM and 0.1 nM))
COC(=O)N[C@H](C(=O)N1C[C@@H](O)C[C@H]1c1nc(-c2ccc(-c3cc(Cl)c(NC(=O)c4ccc(N5CCN(C(=O)C(C)(C)C)C[C@H]5C)nc4)cc3OC(F)(F)F)cc2)c[nH]1)C1CCOCC1 [Example 26-10] | A (A represents a pEC50 value between 6 and 8 (EC50 between 1 μM and 10 nM))

same assay, conditions: Hepatitis C virus, read-out: Genotype 1a, HCV genotype 1a replicon

Structure (SMILES) | EC50 [nM]
COC(=O)NC(C(=O)N1C[C@@H](C)C[C@H]1c1nc(-c2ccc(-c3c(F)cc(NC(=O)c4ccc(N5CCN(C(=O)C(C)(C)C)C[C@H]5C)nc4)cc3F)cc2)c[nH]1)C1CCS(=O)(=O)CC1 (stereo partly shown) [Example 21-2] | 10 to 1000
COC(=O)NC(C(=O)N1C[C@@H](C)C[C@H]1c1nc(-c2ccc(-c3cc(Cl)c(C(=O)Nc4ccc(N5CCN(C(=O)C(C)(C)C)C[C@H]5C)nc4)cc3OC(F)(F)F)cc2)c[nH]1)C1CCCCC1 (stereo partly shown) [Example 23-3] | 0.1 to 1
COC(=O)NC(C(=O)N1C[C@@H](C)C[C@H]1c1nc(-c2ccc(-c3ccc(C(=O)Nc4ccc(N5CCN(C(=O)C(C)(C)C)C[C@H]5C)nc4)c(F)c3OC(F)(F)F)cc2)c[nH]1)C(C)C (stereo partly shown) [Example 25-1] | 0.1 to 1
COC(=O)NC(C(=O)N1C[C@@H](C)C[C@H]1c1nc(-c2ccc(-c3ccc(C(=O)Nc4ccc(N5CCN(C(=O)C(C)(C)C)C[C@H]5C)nc4)c(Cl)c3OC(F)(F)F)cc2)c[nH]1)C1CCOCC1 (stereo partly shown) [Example 25-3] | 0.1 to 1
COC(=O)NC(C(=O)N1C[C@@H](C)C[C@H]1c1nc(-c2ccc(-c3ccc(C(=O)Nc4ccc(N5CCN(C(=O)C(C)(C)C)C[C@H]5C)nc4)c(Cl)c3OC(F)(F)F)cc2)c[nH]1)C(C)C (stereo partly shown) [Example 25-4] | 0.1 to 1
